Reference: paper PMC2363476 (British Journal of Cancer, 2000)
Counter-ions that a name gives are not always drawn. Like-named read-outs stand apart in the source and are kept apart here.

Legend:
[1] = Plasma pharmacokinetics of irinotecan and SN-38 (reversed-phase HPLC); conditions: for SN-38/irinotecan AUC ratio / SN-38 Cmax / AUC / Cmax: cycle 1; for SN-38 Cmax: observed Cmax; for AUC / Cmax: human, plasma; for AUC: intravenous, Irinotecan AUC; for Cmax: iv, Irinotecan Cmax, estimated at the end of i.v. infusion
Procedure: Other radiological investi- gations were carried out if indicated. […] Pharmacokinetic analysis was performed using WinNonlin software. […] Patients were seen weekly while on treatment.

[2] = 1995, cited from earlier work
[3] = Plasma pharmacokinetics of raltitrexed (radioimmunoassay); type: in vivo; conditions: human, intravenous
Procedure: […]. […] […]. […] 261 courses were administered. […] Two others had lethargy caused by disease progression. There was no first-cycle neutropenia. […] […]; 6/30 patients (20%) had objective responses. This combination is active with manageable toxicity. […] Other radiological investi- gations were carried out if indicated. […] […]. […] Pharmacokinetic analysis was performed using WinNonlin software. […] […]. Patients were seen weekly while on treatment. […] […]. […] All the other patients were evaluable for toxicity. […] Duration of neutropaenia ranged from 3-8 days. […] Grade 3 lethargy was therefore defined as a DLT. […] […]. […] They therefore continued treatment as scheduled. […] Dose delays were seen after 24/143 cycles (17%). […] Six patients required dose reduction.

[4] = tested on: patients with advanced GI tract adenocarcinoma
Text: The primary objectives of this study were to determine the maximum tolerated doses (MTD) of the two drugs given as short infusions every 3 weeks and to determine the toxic effects and DLT of the combination. Secondary objectives were to measure the pharmacokinetics of irinotecan, SN-38 and raltitrexed, to assess the anti-tumour effect of the combination and to recom- mend a safe dose for phase II evaluation. METHODS Definitions DLT was defined as any grade 3 or 4 non-haematological toxicity (except alopecia) following cycle 1; grade 4 neutropenia or grade 3-4 neutropenia associated with fever (> 38C) or sepsis; grade 4 thrombocytopenia or any grade of thrombocytopenia associated with haemorrhage. MTD was defined as the dose level at which 50% of patients experienced the same DLT. […] Exclusion criteria were: previous treatment with topoisomerase I inhibitor; chronic enteropathy; symptomatic cerebral metastasis or leptomeningeal carcinomatosis; unresolved bowel obstruction; pregnancy; previous malignant disease (except adequately treated carcinoma in situ of the cervix uteri or basal cell carcinoma of the skin). Pre-treatment evaluation Prior to entry, patients were evaluated with a physical examina- tion. An ECG, chest X-ray and CT scan of thorax abdomen and pelvis were carried out on all patients. Other radiological investi- gations were carried out if indicated. A full blood count, renal function tests, liver function tests and prothrombin time were also performed. […] A minimum of three patients were recruited to each dose level, and escalation to the next level was carried out when all three had been observed for a minimum of 2 weeks. The initial design was for the level below MTD to be expanded to six patients. […] Patients received six cycles of treatment subject to favourable response. Further cycles could be administered at the investigators' discre- tion if there was evidence of continuing clinical benefit. […] Pharmacokinetic analysis was performed using WinNonlin software. The calculation of kinetic parameters was performed using a 2- or 3-compartment open model for irinotecan, and a non-compartmental analysis for its metabolite SN-38 and raltitrexed. The following parameters were evaluated: maximum plasma concentration (Cmax ); area under the plasma concentration-time curve (AUC); total body clearance (Cl); volume of distribution at steady state (Vss ) and terminal half-life (t1/2 ). Evaluation and management of toxicity No prophylactic antidiarrhoeal treatment was given. […] Patients were seen weekly while on treatment. Toxicities were graded according to the NCI common toxicity criteria (NCI-CTC). […] Any patient experiencing concomitant vomiting was hospitalized to prevent dehydration. […] All patients with febrile neutropaenia were admitted to hospital and treated with intravenous antibiotics. […] In the case of myelosuppression lasting more than 5 weeks from the date of treatment, the patient was withrawn from the study.

[5] = 1998, cited from earlier work
[6] = dose level I (irinotecan 175, raltitrexed 2.6 mg m-2), n=3
[7] = dose level II (irinotecan 200, raltitrexed 2.6 mg m-2), n=3
[8] = dose level III (irinotecan 250, raltitrexed 2.6 mg m-2), n=3
[9] = dose level IV (irinotecan 300, raltitrexed 2.6 mg m-2), n=3
[10] = dose level V (irinotecan 350, raltitrexed 2.6 mg m-2), n=3
[11] = dose level VI (irinotecan 350, raltitrexed 3.0 mg m-2), n=6
[12] = dose level VII (irinotecan 400, raltitrexed 2.6 mg m-2), n=5
[13] = dose level I (irinotecan 175, raltitrexed 2.6 mg m-2), cycle 1, n=3
[14] = dose level II (irinotecan 200, raltitrexed 2.6 mg m-2), cycle 1, n=3
[15] = dose level III (irinotecan 250, raltitrexed 2.6 mg m-2), cycle 1, n=3
[16] = dose level IV (irinotecan 300, raltitrexed 2.6 mg m-2), cycle 1, n=3
[17] = dose level V (irinotecan 350, raltitrexed 2.6 mg m-2), cycle 1, n=3
[18] = dose level VI (irinotecan 350, raltitrexed 3.0 mg m-2), cycle 1, n=6
[19] = dose level VII (irinotecan 400, raltitrexed 2.6 mg m-2), cycle 1, n=6
[20] = 3.0 mg m-2, 14C labelled raltitrexed, single agent, ref Beale et al

SMILES: CCc1c2c(nc3ccc(O)cc13)-c1cc3c(c(=O)n1C2)COC(=O)[C@]3(O)CC [SN-38]
- SN-38 time of maximal concentrations following the end of i.v. infusion ([1]; all dose levels): ≤ 60 min
- SN-38/irinotecan AUC ratio [1, 6]: 2.1%
- SN-38 Cmax [1, 6]: 48000 µg/mL
- SN-38/irinotecan AUC ratio [1, 7]: 3.2%
- SN-38 Cmax [1, 7]: 74000 µg/mL
- SN-38/irinotecan AUC ratio [1, 8]: 2.3%
- SN-38 Cmax [1, 8]: 60000 µg/mL
- SN-38/irinotecan AUC ratio [1, 9]: 2.1%
- SN-38 Cmax [1, 9]: 71000 µg/mL
- SN-38/irinotecan AUC ratio [1, 10]: 2.9%
- SN-38 Cmax [1, 10]: 57000 µg/mL
- SN-38/irinotecan AUC ratio [1, 11]: 2.1%
- SN-38 Cmax [1, 11]: 100000 µg/mL
- SN-38/irinotecan AUC ratio [1, 12]: 2.7%
- SN-38 Cmax [1, 12]: 117000 µg/mL
- SN-38 apparent terminal half-life, mean value ([1]; over the administered dose range): 0.462 days
- SN-38/irinotecan AUC ratio, overall mean value ([1]; over the tested dose range): 2.4%
- SN-38 t1/2 ([2]; 168 phase I cancer patients treated with irinotecan alone, ref Chabot et al): 0.442 days
- SN-38/irinotecan AUC ratio, overall mean value ([2]; irinotecan monotherapy, ref Abigerges et al): 3.1%

SMILES: Cc1nc2ccc(CN(C)c3ccc(C(=O)N[C@@H](CCC(=O)O)C(=O)O)s3)cc2c(=O)[nH]1 [raltitrexed]
- AUC [3, 13]: 1710 ng·h/mL
- Cmax [3, 13]: 0.561 µg/mL
- clearance ([3]; dose level I (irinotecan 175, raltitrexed 2.6 mg m-2), cycle 1, n=3, read-out: Raltitrexed Cl (converted)): 50.2 mL/min
- Vd ([3]; dose level I (irinotecan 175, raltitrexed 2.6 mg m-2), cycle 1, n=3, read-out: Raltitrexed Vss): 40.7 L
- half-life ([3]; dose level I (irinotecan 175, raltitrexed 2.6 mg m-2), cycle 1, n=3, read-out: Raltitrexed t1/2 terminal (converted)): 9.25 days
- AUC [3, 14]: 1440 ng·h/mL
- Cmax [3, 14]: 0.42 µg/mL
- clearance ([3]; dose level II (irinotecan 200, raltitrexed 2.6 mg m-2), cycle 1, n=3, read-out: Raltitrexed Cl (converted)): 78.3 mL/min
- Vd ([3]; dose level II (irinotecan 200, raltitrexed 2.6 mg m-2), cycle 1, n=3, read-out: Raltitrexed Vss): 27.3 L
- half-life ([3]; dose level II (irinotecan 200, raltitrexed 2.6 mg m-2), cycle 1, n=3, read-out: Raltitrexed t1/2 terminal (converted)): 7.92 days
- AUC [3, 15]: 1460 ng·h/mL
- Cmax [3, 15]: 0.291 µg/mL
- clearance ([3]; dose level III (irinotecan 250, raltitrexed 2.6 mg m-2), cycle 1, n=3, read-out: Raltitrexed Cl (converted)): 56 mL/min
- Vd ([3]; dose level III (irinotecan 250, raltitrexed 2.6 mg m-2), cycle 1, n=3, read-out: Raltitrexed Vss): 60.2 L
- half-life ([3]; dose level III (irinotecan 250, raltitrexed 2.6 mg m-2), cycle 1, n=3, read-out: Raltitrexed t1/2 terminal (converted)): 14.4 days
- AUC [3, 16]: 1810 ng·h/mL
- Cmax [3, 16]: 0.676 µg/mL
- clearance ([3]; dose level IV (irinotecan 300, raltitrexed 2.6 mg m-2), cycle 1, n=3, read-out: Raltitrexed Cl (converted)): 47.2 mL/min
- Vd ([3]; dose level IV (irinotecan 300, raltitrexed 2.6 mg m-2), cycle 1, n=3, read-out: Raltitrexed Vss): 32.3 L
- half-life ([3]; dose level IV (irinotecan 300, raltitrexed 2.6 mg m-2), cycle 1, n=3, read-out: Raltitrexed t1/2 terminal (converted)): 14.5 days
- AUC [3, 17]: 2520 ng·h/mL
- Cmax [3, 17]: 0.736 µg/mL
- clearance ([3]; dose level V (irinotecan 350, raltitrexed 2.6 mg m-2), cycle 1, n=3, read-out: Raltitrexed Cl (converted)): 41.7 mL/min
- Vd ([3]; dose level V (irinotecan 350, raltitrexed 2.6 mg m-2), cycle 1, n=3, read-out: Raltitrexed Vss): 30.2 L
- half-life ([3]; dose level V (irinotecan 350, raltitrexed 2.6 mg m-2), cycle 1, n=3, read-out: Raltitrexed t1/2 terminal (converted)): 16.8 days
- AUC [3, 18]: 2480 ng·h/mL
- Cmax [3, 18]: 0.772 µg/mL
- clearance ([3]; dose level VI (irinotecan 350, raltitrexed 3.0 mg m-2), cycle 1, n=6, read-out: Raltitrexed Cl (converted)): 40.2 mL/min
- Vd ([3]; dose level VI (irinotecan 350, raltitrexed 3.0 mg m-2), cycle 1, n=6, read-out: Raltitrexed Vss): 25.8 L
- half-life ([3]; dose level VI (irinotecan 350, raltitrexed 3.0 mg m-2), cycle 1, n=6, read-out: Raltitrexed t1/2 terminal (converted)): 12.3 days
- AUC [3, 19]: 1500 ng·h/mL
- Cmax [3, 19]: 0.574 µg/mL
- clearance ([3]; dose level VII (irinotecan 400, raltitrexed 2.6 mg m-2), cycle 1, n=6, read-out: Raltitrexed Cl (converted)): 55.7 mL/min
- Vd ([3]; dose level VII (irinotecan 400, raltitrexed 2.6 mg m-2), cycle 1, n=6, read-out: Raltitrexed Vss): 43.8 L
- half-life ([3]; dose level VII (irinotecan 400, raltitrexed 2.6 mg m-2), cycle 1, n=6, read-out: Raltitrexed t1/2 terminal (converted)): 10.9 days
- clearance ([3]; over all dose ranges, 27 patients, read-out: raltitrexed Cl (converted)): 51.7 mL/min
- half-life ([3]; over all dose ranges, 27 patients, read-out: raltitrexed t1/2 (converted)): 12.1 days
- patients with lower limb cellulitis secondary to raltitrexed ([4]; combination treatment): One
- recommended dose for phase II evaluation, raltitrexed ([4]; with irinotecan 350 mg m-2 every 3 weeks (level VI)): 3.0 mg m-2
- MTD, raltitrexed dose ([4]; with irinotecan 400 mg m-2, 3-weekly (level VII)): 2.6 mg m-2
- raltitrexed AUC [5, 20]: 2342 ng/h/mL
- raltitrexed Cmax [5, 20]: 0.737 µg/mL
- raltitrexed clearance [5, 20]: 2.48 L/h
- change of raltitrexed AUC in renal impairment ([5]; patients with measured creatinine clearance less than 65 ml min-1, ref Judson et al): approximately doubled

SMILES: CCc1c2c(nc3ccc(OC(=O)N4CCC(N5CCCCC5)CC4)cc13)-c1cc3c(c(=O)n1C2)COC(=O)[C@]3(O)CC [irinotecan, Irinotecan hydrochloride]
- AUC [1, 6]: 13100 ng·h/mL
- AUC [1, 7]: 16000 ng·h/mL
- AUC [1, 8]: 14600 ng·h/mL
- AUC [1, 9]: 22600 ng·h/mL
- AUC [1, 10]: 26600 ng·h/mL
- AUC [1, 11]: 29000 ng·h/mL
- AUC [1, 12]: 27000 ng·h/mL
- Cmax [1, 6]: 3.53 µg/mL
- Cmax [1, 7]: 4.7 µg/mL
- Cmax [1, 8]: 5.92 µg/mL
- Cmax [1, 9]: 5.98 µg/mL
- Cmax [1, 10]: 4.89 µg/mL
- Cmax [1, 11]: 5.43 µg/mL
- Cmax [1, 12]: 5.41 µg/mL
- MTD, irinotecan dose ([4]; with raltitrexed 2.6 mg m-2, 3-weekly (level VII)): 400 mg m-2
- recommended dose for phase II evaluation, irinotecan ([4]; with raltitrexed 3.0 mg m-2 every 3 weeks (level VI)): 350 mg m-2
